Source: patent publication US6410515B1, “Peptide, a method for its preparation and a pharmaceutical composition containing the peptide” (Immunotech Developments Inc., priority 1995, dated 2002)

Assays:
[1] = Solubility of the peptide; assay type: physicochemical
Excerpt: The resulting peptide has the following physical and chemical properties and characteristics: […]

CFU-S in S-phase = experiment: Thymidine suicide test on boosted (4 Gy) bone marrow; assay type: in vivo, mice; conditions: for Average colony count: 4 Gy, per 10^5 injected bone marrow cells; for % CFU-S in S-phase: irradiation alone 55,0, intact control 10,5
Procedure: The mechanism of the inhibiting effect of the peptide on hemopoiesis was studied using the “thymidine suicide” test. The method provides an accurate measurement of the percentage of dividing cells (in the S-phase of the cell cycle). A bone marrow suspension is incubated with 3H-thymidine, which kills cells in the S-phase.
The first series of experiments investigated the effect of the peptide on CFU-S proliferation. Such an assay can not be done with intact marrow since the progenitors proliferate very poorly (0 to 15% in a cycle) in intact bone marrow. Consequently, as a source of CFU-S, “boosted” bone marrow was used containing at least 40% proliferating cells. “Boosted” bone marrow was obtained from mouse bone marrow on the 7th day following radiation with a dose of 4 Gy. Donor mice were irradiated with this dose and 5 or 6 days later they received iDD. On day 7 following the irradiation, the bone marrow was examined for the percentage of dividing cells, i.e. the iDD treatment lasted 1 or 2 days. According to the results obtained, when injected two days before the extraction of bone marrow, the peptide inhibited the proliferation so that the percentage of dividing cells was even lower than in intact subjects. When the peptide was injected one day before bone marrow was taken, no effect was observed (Table 7).
Table 7 illustrates the effect of the peptide on cell proliferation in irradiated (4 Gy) bone marrow.

[2] = tested on: hemopoietic progenitor cells (CFU-S); experiment: CFU-S content in bone marrow of mice irradiated with 4 Gy; assay type: in vivo; conditions: day 8, control 401 ± 48
Procedure: The effect of H-A-D-Trp-Y, where A is D-Glu or D-iGlu and Y is OH or a substituted amide, on protection and reconstitution of the population of hemopoietic progenitor cells in cytopenias of different origin was studied.
Ionising radiation was used to deplete bone marrow. Donor mice were irradiated at a dose of 4 Gy. For each of the two peptides, 10 μg/kg was injected intraperitoneally 1 hour, 1 day or 2 days before the irradiation (groups of 12 mice each). Bone marrow was taken from femoral bones 8 days after the irradiation. Eight days generally marks the beginning of an exponential reconstitution of both the total number of cells and the population of hemopoietic progenitors in the bone marrow, which were depleted as a result of irradiation.
On the 8th day a sharp statistically significant increase was recorded in the hemopoietic progenitor cells count in the bone marrow of the mice irradiated in the dose of 4 Gy who had received the peptide 2 days before the irradiation.

Substance: H-D-iGlu-D-Trp-OH [iDD]
- Solubility in alcohol ([1]; alcohol): moderately soluble
- Solubility in chloroform ([1]; chloroform): insoluble
- Solubility in water ([1]; water): readily soluble
- Average colony count (CFU-S in S-phase; iDD 1 day before marrow extraction, + 3H): 5,8 ± 0,5
- Average colony count (CFU-S in S-phase; iDD 1 day before marrow extraction, without 3H): 8,3 ± 0,4
- % CFU-S in S-phase (CFU-S in S-phase; iDD 1 day): 50,6%
- Average colony count (CFU-S in S-phase; iDD 2 days before marrow extraction, + 3H): 2,8 ± 0,2
- Average colony count (CFU-S in S-phase; iDD 2 days before marrow extraction, without 3H): 3,5 ± 0,2
- % CFU-S in S-phase (CFU-S in S-phase; iDD 2 days): 5,8%
- CFU-S count per femur ([2]; 10 μg/kg IP 1 hour before 4 Gy): 394 ± 57
- CFU-S count per femur ([2]; 10 μg/kg IP 1 day before 4 Gy): 324 ± 63
- CFU-S count per femur ([2]; 10 μg/kg IP 2 days before 4 Gy): 677 ± 49
